Experimental data taken from patent publication US11701316B2, “Synergistic anti-inflammatory compositions” (The Procter & Gamble Company, priority 2020, dated 2023).
“And” between values parts separate entries of the source, which are not always exact repeats. Equal entries are not always repeated.

Assays:
[1] = tested on: PGE2 release from keratinocytes; assay: Prostaglandin E2 (PGE2) assay in UVB-stressed TERT keratinocytes, normalized to ATP activity; type: cell-based, human; conditions: tKC
Description: Inhibiting the Cell's Inflammation Response to a Stressor—Prostaglandin E2 (“PGE2”) Assay.
PGE2 is a hormone-like substance that is known to participate in modulation of inflammation. Cellular inflammation is associated with a variety of hair, skin and scalp conditions, and thus inhibiting PGE2 activation vis-à-vis cellular inflammation may help treat these types of hair, skin and scalp conditions.
TERT keratinocytes (“tKC”-tKCs are human keratinocytes which have been transfected with the human telomerase reverse transcriptase gene to immortalize the cells) are obtained from Jerry Shay, University of Texas, Southwestern and plated at 40,000 cells/well into 24-well plates in 1 ml/well volume. EpiLife Medium (Life Technologies cat # MEPICFPRF500) supplemented with keratinocyte growth supplement (Life technologies cat #S-001-5) is used as the assay media. The cells are grown to confluence/near confluence, (typically 24 hours after plating 40,000 cells/well in 24 well plate) and then subjected to 15 mJ/cm^2 UVB-stress (typically […] in BioSun). The test compositions (strobilurins, salicylic acid, strobilurins+salicylic acid, and positive control 10 uM idebenone) are added to replace the medium (EpiLife Medium with 0.1% final concentration of DMSO-briefly, 1000× stocks of actives and combinations made in 100% DMSO and diluted into Epilife media 1 to 1000), and the plates are incubated for 18-24 hours. The supernatant is removed from each well, and the cells are rinsed with 2 ml/well medium (without supplements). A Cell Titer-Glo assay (Promega cat # G7571; Madison Wis.) is used to measure ATP activity, is conducted on the cells for normalization. The supernatant is tested in a PGE2 assay (Prostaglandin E2 Assay kit from Cisbio Bioassays cat# 62P2APEB) according to the manufacturer's instructions. The PGE2 results are normalized to ATP activity. The PGE2 quantitation (pg/mL) from the supernatant is divided by the normalization factor (treatment ATP/control ATP).
Example Calculation to Compute PGE2 Inhibition by Strobilurin
Luminescence of vehicle control in ATP assay=704567
Luminescence of strobilurin treatment in ATP assay=678903
Normalization factor for strobilurin treatment=1.038
PGE2 quantitation for vehicle control=2458 pg/mL PGE2
PGE2 quantitation for strobilurin treatment=2347 pg/mL PGE2
Student's T-Test (equal variance, 2 sided) are used to calculate p-values between observed combinations and expected combinations with p-value <0.05 considered statistically significant. Expected combination values are calculated by adding the PGE2 inhibition values of strobilurins alone and salicylic acid alone. Synergy factor is simply the ratio of observed combination/expected combination. Synergy factors greater than 1.0 with a p-value <0.05 are deemed synergistic.

[2] = cited from earlier work
[3] = strobilurin alone, 1 × 10−5 w/v % (100:1), UVB
[4] = strobilurin alone, 1 × 10−6 w/v % (10:1), UVB
[5] = strobilurin alone, 1 × 10−7 w/v % (1:1), UVB
[6] = strobilurin alone, 1 × 10−7 w/v % (column 1:10), 15 mJ/cm2 UVB, 18-24 hours
[7] = strobilurin alone, 5 × 10−6 w/v % (50:1), UVB

Structure (SMILES) | % PGE2 Inhibition [1, 3] [%] | % PGE2 Inhibition [1, 4] [%] | % PGE2 Inhibition [1, 5] [%] | % PGE2 Inhibition [1, 6] [%] | % PGE2 Inhibition [1, 7] [%] | solubility in water [2] | % PGE2 Inhibition ([1]; salicylic acid alone, 1 × 10−6 (column 1:10), UVB) | % PGE2 Inhibition ([1]; salicylic acid alone, 1 × 10−7 (1:1), UVB) | % PGE2 Inhibition ([1]; salicylic acid alone, 1 × 10−7 (10:1), UVB) | % PGE2 Inhibition ([1]; salicylic acid alone, 1 × 10−7 (50:1), UVB) | % PGE2 Inhibition ([1]; salicylic acid alone, 1 × 10−7 (100:1), UVB)
COC(=O)N(OC)c1ccccc1COc1ccn(-c2ccc(Cl)cc2)n1 [pyraclostrobin] | 70.4 | 46.0 | 30.4 | 30.4 | 55.3 |  |  |  |  |  | 
CNC(=O)/C(=N/OC)c1ccccc1CO/N=C(C)/C(=N/OC)C(/C)=N/OC [orysastrobin] | 36 | 12 | 6 | 6 | 18 |  |  |  |  |  | 
CO/N=C(/C(=O)OC)c1ccccc1COc1ccccc1C [kresoxim methyl] | 12 | 7 | 5 | 5 | 9 |  |  |  |  |  | 
CON=C(C(=O)OC)c1ccccc1CON=C(C)c1cccc(C(F)(F)F)c1 [trifloxystrobin] | 8 | 7 | 5 | 5 | 8 |  |  |  |  |  | 
CO/C=C(/C(=O)OC)c1ccccc1Oc1cc(Oc2ccccc2C#N)ncn1 [azoxystrobin] | 58 | 22 | 8 | 8 | 37 | low |  |  |  |  | 
CO/N=C(/C1=NOCCO1)c1ccccc1Oc1ncnc(Oc2ccccc2Cl)c1F [fluoxastrobin] | 42 | 9 | 5 | 5 | 17 |  |  |  |  |  | 
O=C(O)c1ccccc1O [salicylic acid, reference compound] |  |  |  |  |  |  | 32% and 31.4% | 18% and 16.2% | 18% and 16.2% | 18% and 16.2% | 18% and 16.2%
CNC(=O)/C(=N/OC)c1ccccc1COc1cc(C)ccc1C [dimoxystrobin] | 13 | 7 | 4 | 4 | 11 |  |  |  |  |  | 
CO/C=C(/C(=O)OC)c1ccccc1COc1cccc(C(F)(F)F)n1 [picoxystrobin] | 24 | 12 | 6 | 6 | 18 |  |  |  |  |  | 
